Source: ChEMBL document CHEMBL3085704, “Methyl-thiazoles: a novel mode of inhibition with the potential to develop novel inhibitors targeting InhA in Mycobacterium tuberculosis” (J Med Chem, 2013)

Legend:
Format in all cases: functional
[1] = test system: Mycobacterium tuberculosis; test: Antitubercular activity against Mycobacterium tuberculosis H37Rv expressing inhA M103I mutant assessed as parasite growth inhibition after 7 days by Alamar Blue assay
[2] = test system: Mycobacterium tuberculosis; test: Antitubercular activity against Mycobacterium tuberculosis H37Rv expressing inhA M103L mutant assessed as parasite growth inhibition after 7 days by Alamar Blue assay
[3] = test system: Mycobacterium tuberculosis; test: Antitubercular activity against Mycobacterium tuberculosis H37Rv expressing inhA G96V mutant assessed as parasite growth inhibition after 7 days by Alamar Blue assay

Row | SMILES | MIC [1] | MIC [2] | MIC [3]
1 | Cc1csc([C@](C)(O)c2nnc(Nc3ccn(Cc4c(F)cccc4F)n3)s2)n1 | >25 µM | >25 µM | >25 µM
2 | Cc1csc(C(C)(O)c2nnc(Nc3ncn(Cc4c(F)cccc4F)n3)s2)n1 (racemic) | >25 µM | >25 µM | >25 µM
3 | NNC(=O)c1ccncc1 [ISONIAZID] | 0.06 µg/mL | 0.03 µg/mL | 0.06 µg/mL
4 | COc1c(N2C[C@@H]3CCCN[C@@H]3C2)c(F)cc2c(=O)c(C(=O)O)cn(C3CC3)c12 [MOXIFLOXACIN] | 0.12 µg/mL | 0.12 µg/mL | 0.12 µg/mL
5 | CO[C@H]1/C=C/O[C@@]2(C)Oc3c(C)c(O)c4c(O)c(c(/C=N/N5CCN(C)CC5)c(O)c4c3C2=O)NC(=O)/C(C)=C\C=C\[C@H](C)[C@H](O)[C@@H](C)[C@@H](O)[C@@H](C)[C@H](OC(C)=O)[C@@H]1C [RIFAMPIN] | 0.007 µg/mL | 0.007 µg/mL | 0.01 µg/mL
